According to patent publication US20080009418A1, “Selective Inhibitors” (Alchemia LTD., priority 2004, published 2008):

How the values were obtained:
Details in all cases: compound at 10 μM
[1] = target: T1, Human δ-opioid (DOP) (Homo sapiens, UniProt P41143); assay: Radioligand binding, human δ-opioid (DOP) membranes, FlashPlate, [3H]-Bremazocine
T1 construct: purchased Perkin Elmer Biosignal
Method in brief: (§1)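 Cloned human receptor membranes were coated onto FlashPlate wells and incubated with radioligand and compound (added from a 0.5 mM DMSO daughter plate) for 1 hour at room temperature in the dark. Scintillation counting gave percent inhibition, with DMSO defining total and reference ligand defining non-specific binding.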

[2] = target: T2, Human κ-Opioid (KOP) (Homo sapiens, UniProt P41145); assay: Radioligand binding, human κ-opioid (KOP) membranes, filtration, [3H]-Diprenorphine
T2 construct: purchased Perkin Elmer Biosignal
Method in brief: (§2)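 Filtration binding on cloned human receptor membranes (1 Unit/well), [125I]-Substance P for NK1 and [3H]-Diprenorphine for KOP, 1 h at room temperature. Filters PEI-presoaked, washed with cold 50 mM Tris-HCl pH 7.4, counted by scintillation; percent inhibition calculated, reference ligand defining non-specific binding.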

[3] = target: T3, Human Melanocortin (MC3) (Homo sapiens, UniProt P41968); assay: Radioligand binding, human melanocortin MC3 membranes, FlashPlate, [125I]-NDP-αMSH
T3 construct: purchased Perkin Elmer Biosignal
Method in brief: as §1

[4] = target: T4, Human Melanocortin (MC4) (Homo sapiens, UniProt P32245); assay: Radioligand binding, human melanocortin MC4 membranes, FlashPlate, [125I]-NDP-αMSH
T4 construct: purchased Perkin Elmer Biosignal
Method in brief: as §1

[5] = target: T5, Human melanocortin (MC5) (Homo sapiens, UniProt P33032); assay: Radioligand binding, human melanocortin MC5 membranes, FlashPlate, [125I]-NDP-αMSH
T5 construct: purchased Perkin Elmer Biosignal
Method in brief: as §1

[6] = target: T6, Human melanin-concentrating hormone (MCH1) (Homo sapiens, UniProt Q99705); assay: Radioligand binding, human melanin-concentrating hormone MCH1 membranes, FlashPlate, [125I]-S36057
T6 construct: purchased Perkin Elmer Biosignal
Method in brief: as §1

[7] = target: T7, Human μ-opioid (MOP) (Homo sapiens, UniProt P35372); assay: Radioligand binding, human μ-opioid (MOP) membranes, FlashPlate, [3H]-Naloxone
T7 construct: purchased Perkin Elmer Biosignal
Method in brief: as §1

[8] = target: T8, Human neurokinin (NK1) (Homo sapiens, UniProt P25103); assay: Radioligand binding, human neurokinin NK1 membranes, filtration, [125I]-Substance P
T8 construct: purchased Perkin Elmer Biosignal
Method in brief: as §2

[9] = target: T9, Human neuropeptide Y (NPY-Y1) (Homo sapiens, UniProt P25929); assay: Radioligand binding, human neuropeptide Y NPY-Y1 membranes, FlashPlate, [125I]-PYY
T9 construct: purchased Perkin Elmer Biosignal
T9 sequence (P25929 1-384): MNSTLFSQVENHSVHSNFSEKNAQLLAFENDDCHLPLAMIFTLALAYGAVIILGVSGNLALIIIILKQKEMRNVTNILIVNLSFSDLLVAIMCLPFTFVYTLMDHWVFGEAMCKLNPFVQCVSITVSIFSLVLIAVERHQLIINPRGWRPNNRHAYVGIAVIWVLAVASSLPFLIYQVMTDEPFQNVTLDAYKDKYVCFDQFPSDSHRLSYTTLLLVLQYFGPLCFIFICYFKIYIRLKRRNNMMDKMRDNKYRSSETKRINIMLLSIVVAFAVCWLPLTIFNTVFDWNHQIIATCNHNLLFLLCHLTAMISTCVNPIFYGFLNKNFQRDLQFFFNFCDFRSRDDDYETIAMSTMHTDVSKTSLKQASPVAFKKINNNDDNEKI
Method in brief: as §1

[10] = target: T10, Human opioid (ORL1) (Homo sapiens, UniProt P41146); assay: Radioligand binding, human opioid ORL1 membranes, FlashPlate, [125I]-Nociceptin
T10 construct: purchased Perkin Elmer Biosignal
Method in brief: as §1

[11] = target: T11, Mouse urotensin (mUR2) (Mus musculus, UniProt Q8VIH9); assay: Radioligand binding, mouse urotensin mUR2 membranes, FlashPlate, [125I]-Urotensin II
T11 construct: purchased Perkin Elmer Biosignal
T11 sequence (Q8VIH9 1-385): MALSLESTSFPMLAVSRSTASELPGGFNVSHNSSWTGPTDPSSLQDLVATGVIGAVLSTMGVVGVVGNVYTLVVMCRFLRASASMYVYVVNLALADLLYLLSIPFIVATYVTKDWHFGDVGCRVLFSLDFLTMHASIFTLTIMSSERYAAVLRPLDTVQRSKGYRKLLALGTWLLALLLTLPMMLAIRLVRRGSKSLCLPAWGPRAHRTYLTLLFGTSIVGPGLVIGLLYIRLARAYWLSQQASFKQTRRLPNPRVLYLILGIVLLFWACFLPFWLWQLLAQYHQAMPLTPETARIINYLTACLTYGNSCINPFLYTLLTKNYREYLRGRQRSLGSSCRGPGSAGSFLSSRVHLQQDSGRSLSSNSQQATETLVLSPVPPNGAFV
Method in brief: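 Cloned mouse urotensin (mUR2) receptor membranes from Perkin Elmer Biosignal were immobilized in FlashPlate microplates using a proprietary coating. Each well got 19.5 μl buffer, then 0.5 μl of DMSO, reference ligand, or compound. Adding 5 μl of [125I]-Urotensin II, diluted to 5× final concentration in binding buffer, started binding. Plates were sealed with TopSeal-A and incubated 1 hour at room temperature in the dark. Wells were counted for 30 seconds each on a TopCount after a 60-second delay, and percentage inhibition was calculated.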

T6 sequence (Q99705 whole entry): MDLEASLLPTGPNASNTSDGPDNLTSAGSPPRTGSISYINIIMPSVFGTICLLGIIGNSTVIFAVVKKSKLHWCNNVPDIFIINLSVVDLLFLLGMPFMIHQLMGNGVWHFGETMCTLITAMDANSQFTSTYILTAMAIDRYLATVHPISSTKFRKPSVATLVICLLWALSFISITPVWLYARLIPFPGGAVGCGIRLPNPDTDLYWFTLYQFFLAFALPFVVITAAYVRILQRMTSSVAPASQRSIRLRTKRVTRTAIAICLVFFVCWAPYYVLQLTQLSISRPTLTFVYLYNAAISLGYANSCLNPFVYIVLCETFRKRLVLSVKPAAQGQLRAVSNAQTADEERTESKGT
T1 sequence (P41143 whole entry): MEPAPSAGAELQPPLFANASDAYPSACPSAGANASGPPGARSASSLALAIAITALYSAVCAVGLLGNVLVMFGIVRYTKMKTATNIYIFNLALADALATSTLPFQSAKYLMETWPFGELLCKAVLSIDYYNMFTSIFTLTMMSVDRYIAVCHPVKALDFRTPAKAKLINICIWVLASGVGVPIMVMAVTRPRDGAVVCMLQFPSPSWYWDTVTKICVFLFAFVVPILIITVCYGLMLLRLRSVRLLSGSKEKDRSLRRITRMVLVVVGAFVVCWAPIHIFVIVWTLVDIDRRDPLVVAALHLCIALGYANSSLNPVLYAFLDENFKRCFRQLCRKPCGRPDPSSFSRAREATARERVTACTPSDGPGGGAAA
T7 sequence (P35372 whole entry): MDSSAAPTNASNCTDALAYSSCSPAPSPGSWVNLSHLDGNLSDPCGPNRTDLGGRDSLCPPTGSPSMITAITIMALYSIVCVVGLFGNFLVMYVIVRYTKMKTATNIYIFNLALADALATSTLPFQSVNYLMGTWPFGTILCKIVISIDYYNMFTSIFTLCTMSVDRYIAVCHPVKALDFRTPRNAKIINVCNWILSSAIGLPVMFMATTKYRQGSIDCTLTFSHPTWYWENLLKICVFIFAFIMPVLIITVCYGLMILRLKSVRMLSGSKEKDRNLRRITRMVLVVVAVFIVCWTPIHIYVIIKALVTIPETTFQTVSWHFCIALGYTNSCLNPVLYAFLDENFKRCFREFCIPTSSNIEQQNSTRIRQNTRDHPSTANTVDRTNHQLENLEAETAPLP
T4 sequence (P32245 whole entry): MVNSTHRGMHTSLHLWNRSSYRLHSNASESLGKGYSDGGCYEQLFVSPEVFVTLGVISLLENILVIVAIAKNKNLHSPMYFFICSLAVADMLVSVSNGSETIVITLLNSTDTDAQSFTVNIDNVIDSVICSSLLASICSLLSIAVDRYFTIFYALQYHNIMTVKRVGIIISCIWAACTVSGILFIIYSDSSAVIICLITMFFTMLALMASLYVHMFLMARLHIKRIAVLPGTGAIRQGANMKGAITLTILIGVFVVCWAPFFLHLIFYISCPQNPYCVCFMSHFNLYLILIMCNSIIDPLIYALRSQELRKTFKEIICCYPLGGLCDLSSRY
T5 sequence (P33032 whole entry): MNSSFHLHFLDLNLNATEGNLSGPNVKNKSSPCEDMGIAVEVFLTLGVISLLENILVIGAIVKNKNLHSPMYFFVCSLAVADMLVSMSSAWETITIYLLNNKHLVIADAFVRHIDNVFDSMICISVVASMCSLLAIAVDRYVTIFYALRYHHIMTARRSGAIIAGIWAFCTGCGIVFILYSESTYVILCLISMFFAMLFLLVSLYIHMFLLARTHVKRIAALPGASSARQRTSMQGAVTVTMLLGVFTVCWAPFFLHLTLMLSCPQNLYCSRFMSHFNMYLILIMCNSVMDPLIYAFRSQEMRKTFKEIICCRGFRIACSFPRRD
T10 sequence (P41146 whole entry): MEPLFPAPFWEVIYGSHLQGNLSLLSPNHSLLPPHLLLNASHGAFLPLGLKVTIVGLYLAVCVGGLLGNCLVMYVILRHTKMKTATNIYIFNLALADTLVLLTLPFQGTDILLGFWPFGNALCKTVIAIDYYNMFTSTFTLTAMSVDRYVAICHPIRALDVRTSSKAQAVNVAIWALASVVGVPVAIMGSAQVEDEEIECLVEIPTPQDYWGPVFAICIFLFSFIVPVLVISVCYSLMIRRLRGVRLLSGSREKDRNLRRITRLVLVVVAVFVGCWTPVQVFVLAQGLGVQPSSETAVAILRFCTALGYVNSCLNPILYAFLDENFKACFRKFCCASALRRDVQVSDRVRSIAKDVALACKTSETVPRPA
T2 sequence (P41145 whole entry): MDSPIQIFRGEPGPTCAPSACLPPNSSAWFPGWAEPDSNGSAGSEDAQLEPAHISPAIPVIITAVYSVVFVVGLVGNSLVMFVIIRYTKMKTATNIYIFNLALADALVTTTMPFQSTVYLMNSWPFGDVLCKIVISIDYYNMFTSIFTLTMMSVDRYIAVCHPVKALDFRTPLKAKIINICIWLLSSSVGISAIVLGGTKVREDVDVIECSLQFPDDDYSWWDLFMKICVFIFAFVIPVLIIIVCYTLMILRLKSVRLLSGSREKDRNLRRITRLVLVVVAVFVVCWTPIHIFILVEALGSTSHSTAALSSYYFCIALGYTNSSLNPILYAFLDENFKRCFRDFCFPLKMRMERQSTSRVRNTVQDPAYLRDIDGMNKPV
T8 sequence (P25103 whole entry): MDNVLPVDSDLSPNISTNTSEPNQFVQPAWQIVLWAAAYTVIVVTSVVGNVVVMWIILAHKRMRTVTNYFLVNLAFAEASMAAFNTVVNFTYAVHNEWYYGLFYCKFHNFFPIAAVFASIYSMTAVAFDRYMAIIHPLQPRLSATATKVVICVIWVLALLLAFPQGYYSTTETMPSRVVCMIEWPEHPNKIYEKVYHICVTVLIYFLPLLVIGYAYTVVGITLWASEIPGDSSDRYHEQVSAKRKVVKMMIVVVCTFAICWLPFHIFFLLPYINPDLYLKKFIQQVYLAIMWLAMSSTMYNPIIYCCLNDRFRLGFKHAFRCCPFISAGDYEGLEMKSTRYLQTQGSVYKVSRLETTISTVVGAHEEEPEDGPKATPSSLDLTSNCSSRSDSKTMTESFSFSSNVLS
T3 sequence (P41968 whole entry): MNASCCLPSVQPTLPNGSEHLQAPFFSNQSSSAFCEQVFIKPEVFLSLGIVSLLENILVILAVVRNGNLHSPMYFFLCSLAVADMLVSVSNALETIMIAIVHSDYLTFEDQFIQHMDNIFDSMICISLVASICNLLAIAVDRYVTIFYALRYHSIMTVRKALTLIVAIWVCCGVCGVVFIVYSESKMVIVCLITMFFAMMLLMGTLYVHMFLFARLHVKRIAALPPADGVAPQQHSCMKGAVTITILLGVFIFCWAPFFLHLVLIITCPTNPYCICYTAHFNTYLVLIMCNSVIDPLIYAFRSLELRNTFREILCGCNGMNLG

## NCCCC(=O)NC1C(OCc2ccc3ccccc3c2)OC(COCc2ccc(Cl)cc2)C(O)C1OCc1ccccc1 (stereo not shown) [compound 398]
[1]; [3H]-Bremazocine, human DOP membranes
  A1: inhibition of radioligand binding: − (“−” indicates less than 50% inhibition at 10 μM)
[2]; [3H]-Diprenorphine, human KOP membranes
  A2: inhibition of radioligand binding: − (“−” indicates less than 50% inhibition at 10 μM)
[3]; [125I]-NDP-αMSH, human MC3 membranes, 10 µM
  A3: inhibition of radioligand binding: + (“+” indicates greater than 50% inhibition at 10 μM)
[4]; [125I]-NDP-αMSH, human MC4 membranes, 10 µM
  A4: inhibition of radioligand binding: + (“+” indicates greater than 50% inhibition at 10 μM)
[5]; [125I]-NDP-αMSH, human MC5 membranes
  A5: inhibition of radioligand binding: + (“+” indicates greater than 50% inhibition at 10 μM)
[6]; [125I]-S36057, human MCH1 membranes
  A6: inhibition of radioligand binding: − (“−” indicates less than 50% inhibition at 10 μM)
[7]; [3H]-Naloxone, human MOP membranes
  A7: inhibition of radioligand binding: − (“−” indicates less than 50% inhibition at 10 μM)
[8]; [125I]-Substance P, human NK1 membranes
  A8: inhibition of radioligand binding: + (“+” indicates greater than 50% inhibition at 10 μM)
[9]; [125I]-PYY, human NPY-Y1 membranes
  A9: inhibition of radioligand binding: − (“−” indicates less than 50% inhibition at 10 μM)
[10]; [125I]-Nociceptin, human ORL1 membranes, 10 µM
  A10: inhibition of radioligand binding: − (“−” indicates less than 50% inhibition at 10 μM)
[11]; [125I]-Urotensin II, mouse mUR2 membranes
  A11: inhibition of radioligand binding: − (“−” indicates less than 50% inhibition at 10 μM)

## N=C(N)NCCC(=O)N[C@H]1C(OCc2ccc(Cl)cc2)O[C@H](COCc2ccc3ccccc3c2)[C@@H](O)[C@@H]1OCc1ccc(-c2ccccc2)cc1 (stereo partly shown) [compound 533]
[1]; [3H]-Bremazocine
  A1: inhibition of radioligand binding, human δ-opioid (DOP): − (“−” indicates less than 50% inhibition at 10 μM)
[2]; [3H]-Diprenorphine
  A2: inhibition of radioligand binding, human κ-opioid (KOP): − (“−” indicates less than 50% inhibition at 10 μM)
[3]; [125I]-NDP-αMSH
  A3: inhibition of radioligand binding, human melanocortin (MC3): + (“+” indicates greater than 50% inhibition at 10 μM)
[4]; [125I]-NDP-αMSH
  A4: inhibition of radioligand binding, human melanocortin (MC4): + (“+” indicates greater than 50% inhibition at 10 μM)
[5]; [125I]-NDP-αMSH
  A5: inhibition of radioligand binding, human melanocortin (MC5): + (“+” indicates greater than 50% inhibition at 10 μM)
[6]; [125I]-S36057
  A6: inhibition of radioligand binding, human melanin-concentrating hormone (MCH1): + (“+” indicates greater than 50% inhibition at 10 μM)
[7]; [3H]-Naloxone
  A7: inhibition of radioligand binding, human μ-opioid (MOP): − (“−” indicates less than 50% inhibition at 10 μM)
[8]; [125I]-Substance P
  A8: inhibition of radioligand binding, human neurokinin (NK1): + (“+” indicates greater than 50% inhibition at 10 μM)
[9]; [125I]-PYY
  A9: inhibition of radioligand binding, human neuropeptide Y (NPY-Y1): − (“−” indicates less than 50% inhibition at 10 μM)
[10]; [125I]-Nociceptin
  A10: inhibition of radioligand binding, human opioid (ORL1): − (“−” indicates less than 50% inhibition at 10 μM)
[11]; [125I]-Urotensin II
  A11: inhibition of radioligand binding, mouse urotensin (mUR2): − (“−” indicates less than 50% inhibition at 10 μM)

## COCC1OC(OCc2ccc(Cl)cc2)C(NC(=O)CCNC(=N)N)C(OCc2ccccc2)C1O (stereo not shown) [compound 196]
[1]; [3H]-Bremazocine, FlashPlate
  A1: inhibition of radioligand binding: + (“+” indicates greater than 50% inhibition at 10 μM)
[2]; [3H]-Diprenorphine, filtration
  A2: inhibition of radioligand binding: − (“−” indicates less than 50% inhibition at 10 μM)
[3]; [125I]-NDP-αMSH, FlashPlate
  A3: inhibition of radioligand binding: − (“−” indicates less than 50% inhibition at 10 μM)
[4]; [125I]-NDP-αMSH, FlashPlate
  A4: inhibition of radioligand binding: − (“−” indicates less than 50% inhibition at 10 μM)
[5]; [125I]-NDP-αMSH, FlashPlate
  A5: inhibition of radioligand binding: − (“−” indicates less than 50% inhibition at 10 μM)
[6]; [125I]-S36057, FlashPlate
  A6: inhibition of radioligand binding: − (“−” indicates less than 50% inhibition at 10 μM)
[7]; [3H]-Naloxone, FlashPlate
  A7: inhibition of radioligand binding: − (“−” indicates less than 50% inhibition at 10 μM)
[8]; [125I]-Substance P, filtration
  A8: inhibition of radioligand binding: + (“+” indicates greater than 50% inhibition at 10 μM)
[9]; [125I]-PYY, FlashPlate
  A9: inhibition of radioligand binding: − (“−” indicates less than 50% inhibition at 10 μM)
[10]; [125I]-Nociceptin, FlashPlate
  A10: inhibition of radioligand binding: − (“−” indicates less than 50% inhibition at 10 μM)
[11]; [125I]-Urotensin II, FlashPlate
  A11: inhibition of radioligand binding: − (“−” indicates less than 50% inhibition at 10 μM)

## COC[C@H]1OC(OCc2ccc(-c3ccccc3)cc2)[C@H](NC(=O)CNC(=N)N)[C@@H](OCc2ccc(Cl)cc2)[C@@H]1O (stereo partly shown) [compound 10]
[1]; human δ-opioid (DOP) membranes
  A1 radioligand binding inhibition: − (“−” indicates less than 50% inhibition at 10 μM)
[2]; human κ-opioid (KOP) membranes
  A2 radioligand binding inhibition: − (“−” indicates less than 50% inhibition at 10 μM)
[3]; human melanocortin MC3 membranes
  A3 radioligand binding inhibition: − (“−” indicates less than 50% inhibition at 10 μM)
[4]; human melanocortin MC4 membranes
  A4 radioligand binding inhibition: − (“−” indicates less than 50% inhibition at 10 μM)
[5]; human melanocortin MC5 membranes
  A5 radioligand binding inhibition: + (“+” indicates greater than 50% inhibition at 10 μM)
[6]; human MCH1 membranes
  A6 radioligand binding inhibition: + (“+” indicates greater than 50% inhibition at 10 μM)
[7]; human μ-opioid (MOP) membranes
  A7 radioligand binding inhibition: − (“−” indicates less than 50% inhibition at 10 μM)
[8]; human neurokinin NK1 membranes
  A8 radioligand binding inhibition: + (“+” indicates greater than 50% inhibition at 10 μM)
[9]; human NPY-Y1 membranes
  A9 radioligand binding inhibition: − (“−” indicates less than 50% inhibition at 10 μM)
[10]; human ORL1 membranes
  A10 radioligand binding inhibition: − (“−” indicates less than 50% inhibition at 10 μM)
[11]; mouse urotensin mUR2 membranes
  A11 radioligand binding inhibition: − (“−” indicates less than 50% inhibition at 10 μM)

## COC[C@H]1OC(OCc2ccc(Cl)cc2)[C@H](NC(=O)CCCNC(=N)N)[C@@H](OCc2cccc(O)c2)[C@@H]1O (stereo partly shown) [compound 139]
[1]; [3H]-Bremazocine
  A1 radioligand binding, percentage inhibition: − (“−” indicates less than 50% inhibition at 10 μM)
[2]; [3H]-Diprenorphine
  A2 radioligand binding, percentage inhibition: − (“−” indicates less than 50% inhibition at 10 μM)
[3]; [125I]-NDP-αMSH
  A3 radioligand binding, percentage inhibition: − (“−” indicates less than 50% inhibition at 10 μM)
[4]; [125I]-NDP-αMSH
  A4 radioligand binding, percentage inhibition: − (“−” indicates less than 50% inhibition at 10 μM)
[5]; [125I]-NDP-αMSH
  A5 radioligand binding, percentage inhibition: − (“−” indicates less than 50% inhibition at 10 μM)
[6]; [125I]-S36057
  A6 radioligand binding, percentage inhibition: + (“+” indicates greater than 50% inhibition at 10 μM)
[7]; [3H]-Naloxone
  A7 radioligand binding, percentage inhibition: + (“+” indicates greater than 50% inhibition at 10 μM)
[8]; [125I]-Substance P
  A8 radioligand binding, percentage inhibition: − (“−” indicates less than 50% inhibition at 10 μM)
[9]; [125I]-PYY
  A9 radioligand binding, percentage inhibition: − (“−” indicates less than 50% inhibition at 10 μM)
[10]; [125I]-Nociceptin
  A10 radioligand binding, percentage inhibition: − (“−” indicates less than 50% inhibition at 10 μM)
[11]; [125I]-Urotensin II
  A11 radioligand binding, percentage inhibition: − (“−” indicates less than 50% inhibition at 10 μM)
